IC50 data for 28 compounds are collected here from patent publication US11629135B2 (JUBILANT PRODEL LLC, priority 2017, dated 2023).

T1 sequence (Q9NZQ7 19-238 limits assumed): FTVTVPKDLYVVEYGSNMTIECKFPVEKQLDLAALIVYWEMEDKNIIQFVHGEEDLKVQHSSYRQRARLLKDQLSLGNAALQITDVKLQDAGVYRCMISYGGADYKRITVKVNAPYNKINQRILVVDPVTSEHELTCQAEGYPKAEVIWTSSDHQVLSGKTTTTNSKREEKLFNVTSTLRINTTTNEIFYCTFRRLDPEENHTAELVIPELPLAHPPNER

This test addresses T1, PD-1/PD-L1 interaction (Homo sapiens, UniProt Q9NZQ7).
T1 construct: Tag1 or Tag2 (undisclosed kit tag); purchased CisBio 63ADK000CPAPEG
Briefly: PD-1/PD-L1 Homogenous Time-Resolved Fluorescence (HTRF) binding assay. Conditions: Biochemical PD1/PD-L1 inhibition. The protocol:
PD-L1 Enzyme Assay: Homogenous Time-Resolved Fluorescence (HTRF) Binding Assay
All binding studies were performed using PD-1/PD-L1 Binding Assay Kit from CisBio (Catalog #63ADK000CPAPEG), according to the manufacturer's protocol. The interaction between Tag1-PD-1 and […] was detected by anti-Tag1-Eu^3+ (HTRF donor) and anti-Tag2-XL665 (HTRF acceptor). When the donor and acceptor antibodies were brought to close proximity due to PD-1 and PD-L1 binding, excitation of the donor antibody triggered fluorescent resonance energy transfer (FRET) towards the acceptor antibody, which in turn emitted specifically at 665 nm. This specific signal is positively proportional to PD-1/PD-L1 interaction. The compounds blocking PD-1/PD-L1 interaction will cause a reduction in HTRF signal. The necessary reagents were mixed in the following order: 2 μl compounds (or diluents buffer), 4 μl PD-L1 protein, 4 μl PD-1 protein. After an incubation of 15 minutes, 5 μl of anti-Tag1-Eu^3+ and 5 μl of anti-Tag2-XL665 were added. The plate was sealed and incubated at RT for 1 h. The fluorescence emission was read at two different wavelengths (665 nm and 620 nm) on a BMG PheraStar® multiplate reader. Results were calculated from the 665 nm and 620 nm fluorescence signal and expressed in HTRF ratio=(665 nm/620 nm)×[…].
(Time-resolved FRET reads energy transfer from a long-lived donor to a nearby acceptor.)
Regarding `CC(=O)NCCNCc1cnc(OCc2cccc(-c3ccccc3)c2C)nc1OCc1ccccc1` [Compound 32, N-(2-(((4-(benzyloxy)-2-((2-methyl-[1,1′-biphenyl]-3-yl)methoxy)pyrimidin-5-yl)methyl)amino)ethyl)acetamide], the IC50 (usually the concentration needed to halve the response being measured) was over 500 nM. For `Cc1c(COc2ncc(CN3CCCCC3C(=O)O)c(OCc3ccccc3)n2)cccc1-c1ccccc1` (stereo not shown) [Compound 33, 1-((4-(benzyloxy)-2-((2-methyl-[1,1′-biphenyl]-3-yl)methoxy)pyrimidin-5-yl)methyl)piperidine-2-carboxylic acid], the IC50 was over 500 nM.

In turn, `COc1nc(OCc2cccc(-c3ccccc3)c2C)nc(OC)c1CN1C[C@H](O)C[C@H]1C(=O)O` [Compound 34, (2S,4R)-1-((4,6-dimethoxy-2-((2-methyl-[1,1′-biphenyl]-3-yl)methoxy)pyrimidin-5-yl)methyl)-4-hydroxypyrrolidine-2-carboxylic acid] gave an IC50 of under 100 nM. For `COc1nc(OCc2cccc(-c3ccccc3)c2C)nc(OC)c1CNC(CO)(CO)CO` [Compound 35, 2-(((4,6-dimethoxy-2-((2-methyl-[1,1′-biphenyl]-3-yl)methoxy)pyrimidin-5-yl)methyl)amino)-2-(hydroxymethyl)propane-1,3-diol] the value was under 100 nM.

As to `COc1nc(OCc2cccc(-c3ccccc3)c2C)nc(OC)c1CN1CCC[C@H]1C(=O)O` [Compound 36, ((4,6-dimethoxy-2-((2-methyl-[1,1′-biphenyl]-3-yl)methoxy)pyrimidin-5-yl)methyl)-L-proline], the IC50 lay within 100 to 500 nM. The same measure for `COC(=O)C1COCCN1Cc1c(OC)nc(OCc2cccc(-c3ccccc3)c2C)nc1OC` (stereo not shown) [Compound 37, Methyl 4-((4,6-dimethoxy-2-((2-methyl-[1,1′-biphenyl]-3-yl)methoxy)pyrimidin-5-yl)methyl) morpholine-3-carboxylate]: over 500 nM.

The compound `COc1nc(OCc2cccc(-c3ccccc3)c2C)nc(OC)c1CN1CCOCC1C(=O)O` (stereo not shown) [Compound 38, 4-((4,6-dimethoxy-2-((2-methyl-[1,1′-biphenyl]-3-yl)methoxy)pyrimidin-5-yl)methyl)morpholine-3-carboxylic acid] showed an IC50 of under 100 nM.

Consider `CCOc1nc(OCc2cccc(-c3ccccc3)c2C)nc(OCC)c1CN1C[C@H](O)C[C@H]1C(=O)O` [Compound 39, (2S,4R)-1-((4,6-diethoxy-2-((2-methyl-[1,1′-biphenyl]-3-yl)methoxy)pyrimidin-5-yl)methyl)-4-hydroxypyrrolidine-2-carboxylic acid], for which the IC50 fell in the range of 100 to 500 nM. The same measure for `CCOc1nc(OCc2cccc(-c3ccccc3)c2C)nc(OCC)c1CN1CCCC[C@H]1C(=O)O` [Compound 40]: 100 to 500 nM. For `CCOc1nc(OCc2cccc(-c3ccccc3)c2C)nc(OCC)c1CNC(CO)(CO)CO` [Compound 41, 2-(((4,6-diethoxy-2-((2-methyl-[1,1′-biphenyl]-3-yl)methoxy)pyrimidin-5-yl)methyl)amino)-2-(hydroxymethyl)propane-1,3-diol] the value was 100 to 500 nM; for `COc1nc(OCc2cccc(-c3ccccc3)c2C)nc(OC)c1CN1CCOC[C@H]1C(=O)O` [Compound 43, (S)-4-((4,6-dimethoxy-2-((2-methyl-[1,1′-biphenyl]-3-yl)methoxy)pyrimidin-5-yl)methyl)morpholine-3-carboxylic acid], under 100 nM; for `COc1nc(OCc2cccc(-c3ccccc3)c2C)nc(OC)c1CN1CCOCC1CC(=O)O` (stereo not shown) [Compound 44, 2-(4-((4,6-dimethoxy-2-((2-methyl-[1,1′-biphenyl]-3-yl)methoxy)pyrimidin-5-yl)methyl)morpholin-3-yl)acetic acid], 100 to 500 nM.

As to `COc1nc(OCc2cccc(-c3ccccc3)c2C)nc(OC)c1CN1CC2(CC2)C[C@H]1C(=O)O` [Compound 46, (S)-5-((4,6-dimethoxy-2-((2-methyl-[1,1′-biphenyl]-3-yl)methoxy)pyrimidin-5-yl)methyl)-5-azaspiro[2.4]heptane-6-carboxylic acid], the IC50 was under 100 nM. Regarding `COc1nc(OCc2cccc(-c3ccccc3)c2C)nc(OC)c1CN1CCCC2(CCNC2=O)C1` (stereo not shown) [Compound 47, 7-((4,6-dimethoxy-2-((2-methyl-[1,1′-biphenyl]-3-yl)methoxy)pyrimidin-5-yl)methyl)-2,7-diazaspiro[4.5]decan-1-one], the IC50 is under 100 nM. As to `COc1nc(OCc2cccc(-c3ccccc3)c2C)ncc1CN1CCN(C(C)=O)C[C@H]1C(=O)O` [Compound 49, (S)-4-acetyl-1-((4-methoxy-2-((2-methyl-[1,1′-biphenyl]-3-yl)methoxy)pyrimidin-5-yl)methyl)piperazine-2-carboxylic acid], the IC50 is over 500 nM. In turn, `COc1nc(OCc2cccc(-c3ccccc3)c2C)ncc1CN1CCNC[C@H]1C(=O)O` [Compound 50, (S)-1-((4-methoxy-2-((2-methyl-[1,1′-biphenyl]-3-yl)methoxy)pyrimidin-5-yl)methyl)piperazine-2-carboxylic acid] showed an IC50 of over 500 nM. For `COc1nc(OCc2cccc(-c3ccccc3)c2C)ncc1CN1CC2(CC2)C[C@H]1C(=O)O` [Compound 51, (S)-5-((4-methoxy-2-((2-methyl-[1,1′-biphenyl]-3-yl)methoxy)pyrimidin-5-yl)methyl)-5-azaspiro[2.4]heptane-6-carboxylic acid] the value was over 500 nM; for `COc1nc(OCc2cccc(-c3ccccc3)c2C)ncc1CN1CCCC2(CCNC2=O)C1` (stereo not shown) [Compound 52, 7-((4-methoxy-2-((2-methyl-[1,1′-biphenyl]-3-yl)methoxy)pyrimidin-5-yl)methyl)-2,7-diazaspiro[4.5]decan-1-one], over 500 nM; for `CC(=O)NCCNCc1cnc(OCc2cccc(-c3ccccc3)c2C)nc1OCc1ccc(F)c(C#N)c1` [Compound 53, N-(2-(((4-((3-cyano-4-fluorobenzyl)oxy)-2-((2-methyl-[1,1′-biphenyl]-3-yl)methoxy)pyrimidin-5-yl)methyl)amino)ethyl)acetamide], over 500 nM. Compound `Cc1c(COc2ncc(CN3C[C@H](O)C[C@H]3C(=O)O)c(OCc3ccc(F)c(C#N)c3)n2)cccc1-c1ccccc1` [Compound 54, (2S,4R)-1-((4-((3-cyano-4-fluorobenzyl)oxy)-2-((2-methyl-[1,1′-biphenyl]-3-yl)methoxy)pyrimidin-5-yl)methyl)-4-hydroxypyrrolidine-2-carboxylic acid] came in with an IC50 of 100 to 500 nM. The same measure for `COc1nc(OCc2cccc(-c3ccc4c(c3)OCCO4)c2C)nc(OC)c1CN1CCCC[C@H]1C(=O)O` [Compound 55, (S)-1-((2-((3-(2,3-dihydrobenzo[b][1,4]dioxin-6-yl)-2-methylbenzyl)oxy)-4,6-dimethoxypyrimidin-5-yl)methyl)piperidine-2-carboxylic acid]: under 100 nM. `COc1nc(OCc2cccc(-c3ccc4c(c3)OCCO4)c2C)nc(OC)c1CNCCNC(C)=O` [Compound 56, N-(2-(((2-((3-(2,3-dihydrobenzo[b][1,4]dioxin-6-yl)-2-methylbenzyl)oxy)-4,6-dimethoxypyrimidin-5-yl)methyl)amino)ethyl)acetamide] had an IC50 of under 100 nM.

The compound `COc1ccc(-c2cccc(COc3nc(OC)c(CNCCNC(C)=O)c(OC)n3)c2C)cc1OC` [Compound 57, N-(2-(((2-((3′,4′-dimethoxy-2-methyl-[1,1′-biphenyl]-3-yl)methoxy)-4,6-dimethoxypyrimidin-5-yl)methyl)amino)ethyl)acetamide] had an IC50 of over 500 nM. For `COc1ccc(-c2cccc(COc3nc(OC)c(CN4C[C@H](O)C[C@H]4C(=O)O)c(OC)n3)c2C)cc1OC` [Compound 58] the value was over 500 nM; for `Cc1c(COc2ncc(CN3C[C@H](O)C[C@H]3C(=O)O)c(OCc3cncc(C#N)c3)n2)cccc1-c1ccccc1` [Compound 59, (2S,4R)-1-((4-((5-cyanopyridin-3-yl)methoxy)-2-((2-methyl-[1,1′-biphenyl]-3-yl)methoxy)pyrimidin-5-yl)methyl)-4-hydroxypyrrolidine-2-carboxylic acid], over 500 nM; for `COc1nc(OCc2cccc(-c3ccccc3)c2C)ncc1CN1CCCC[C@H]1CC(=O)O` [Compound 60, (S)-2-(1-((4-methoxy-2-((2-methyl-[1,1′-biphenyl]-3-yl)methoxy)pyrimidin-5-yl)methyl)piperidin-2-yl) acetic acid], 100 to 500 nM. For `Cc1nc(OCc2cccc(-c3ccccc3)c2C)ncc1CN1CCCC[C@H]1C(=O)O` [Compound 64, (S)-1-((4-methyl-2-((2-methyl-[1,1′-biphenyl]-3-yl)methoxy)pyrimidin-5-yl)methyl)piperidine-2-carboxylic acid] the value was under 100 nM; for `CC(=O)NCCNCc1cnc(OCc2cccc(-c3ccccc3)c2C)nc1C` [Compound 65, N-(2-(((4-methyl-2-((2-methyl-[1,1′-biphenyl]-3-yl)methoxy)pyrimidin-5-yl)methyl)amino)ethyl)acetamide], 100 to 500 nM.
